Square brackets hold non-standard residues; d marks the D form. Ends that are not written are not given here. Hyp = O=C(O)[C@@H]1C[C@@H](O)CN1
Legend:
[1] = tested on: D93 binding to human denatured-collagen IV; experiment: Competition ELISA: synthetic peptides blocking D93 binding to heat denatured collagen IV; conditions: average of two studies, vs 1% BSA/PBS alone
Description: (§1) The ELISA was conducted as follows: wells of a 96-well microtiter plate (Immulon, 4 HBX flat-bottomed, Thermo Electron Corporation, Waltham, Mass.) were coated with 100 μL/well of dn-collagen IV at 10 μg/mL in Phosphate Buffered Saline (PBS) overnight at 4° C. The plate was washed 3 times (3×) with PBS containing 0.05% (v/v) Tween-20 (PBST) using an automated plate washer.
(§2) The plate was blocked by adding 300 μL/well of 1% BSA (w/v) in PBS for 1 hour at 25° C. followed by washing 3× in PBST as above.
(§3) Solutions of D93 or HUI77 were prepared with various concentrations of peptide or antibody inhibitor and incubate for 15 minutes. D93 or HUI77 was prepared at 200 ng/mL in 1% BSA/PBS.
(§4) For antibody blocking studies using synthetic peptides: peptide inhibitor stock solutions were prepared at 2 mM, 0.2 mM, 0.02 mM, and 0.002 mM in 1% BSA/PBS. 500 μL of a 2 mM peptide solution in 1% BSA/PBS was prepared and diluted 1:10 in 500 μL a total of three times to make peptide inhibitor concentrations.
(§5) 200 μL of D93 or HUI77 at 200 ng/mL solution was combined with 200 μL of peptide or antibody inhibitor solution and incubated for 15 minutes at room temperature.
(§6) D93 or HUI77 with various concentrations of inhibitors (2 mM, 0.2 mM, 0.02 mM, and 0.002 mM) were added to microplate wells and incubated for 1 hour at 25° C. The plate was washed 3× in PBST as above.
(§7) To each microtiter plate well, 100 μL of diluted anti-human IgG or anti-mouse IgM conjugated to horseradish peroxidase (HRP) in PBST was added and incubated for one hour at 25° C.: (a) for D93: Goat anti-human IgG-HRP (Jackson ImmunoResearch, Catalog No. 109-035-088) was used at 1:20,000 and (b) for HUI77: Goat anti-mouse IgM-HRP was used at 1:4,000. Plates were washed 3× in PBST as above.
(§8) Tetramethylbenzidine (TMB) substrate (100 μL; Pierce Chemicals)) was added to wells and the plates were allowed to develop at room temperature for 15 minutes in the dark. Substrate development was stopped by adding 50 μL/well of 2N H2SO4. The microtiter […] plates were read at 450 nm within five minutes of adding the H2SO4. Reactivity was measured with a microplate reader (Molecular Devices, Sunnyvale, Calif.) at a wavelength of 450 nm and analyzed using SOFTMax® PRO4.0 (Molecular Devices). All samples were tested in triplicate.
(§9) Individual peptides with amino acid substitutions and deletions were also synthesized based on the primary and secondary peptide arrays. […] The inhibitory activity of the individual peptides was tested by ELISA as previously described to measure binding of D93 or HUI77 to denatured collagen where peptides and antibodies were prepared at a 2× concentration and pre-incubated for 15 minutes prior to adding to microtiter plates coated with dn-collagen.
(§10) 96-well plates were coated with 100 μL/well of denatured (dn) collagen IV at 10 μg/mL in phosphate buffered saline (PBS) overnight at 4° C. followed by washing the plates in an automated plate washer 3 times in PBS containing 0.05% (v/v) Tween-20 (PBST). Non-specific binding was prevented by blocking the wells by adding 300 μL/well of 1% bovine serum albumin (BSA) (w/v) in PBS for 1 hour (hr) at 25° C. The plates were washed as above.
(§11) Solutions of D93 and HUI77 antibodies were prepared with various concentrations of inhibitor and incubated for 15 minutes. Briefly, 20 mLs of D93 or HUI77 were prepared at 200 ng/mL in 1% BSA/PBS. Solutions of peptide inhibitors (2 mM, 0.2 mM, […]) were prepared in 1% BSA/PBS. Equal volumes of antibodies and peptide inhibitors were combined: 200 μL of D93 or HUI77 (200 ng/mL solution) with 200 μL of each peptide solution.
(§12) 100 μL/well of D93 or HUI77 at 100 ng/mL with various concentrations of inhibitors were added to the wells in triplicate and incubated for 1 hour at 25° C. The plates were washed as described above.
(§13) 100 μL/well of secondary horseradish peroxidase (HRP)-conjugated antibody in PBST was added to each well and incubated for 1 hour (hr) at 25° C. […]

[2] = tested on: HUI77 binding to denatured collagen IV; experiment: Competition ELISA: synthetic peptides blocking HUI77 binding to heat denatured collagen IV; design: species or system human; conditions: average of two studies
Description: as §1, §2, §3, §4, §5, §6, §7, §8, §9, §10, §11, §12, §13

[3] = peptide inhibitor concentration 1 μM
[4] = peptide inhibitor concentration 10 μM
[5] = peptide inhibitor concentration 100 μM
[6] = peptide inhibitor concentration 1000 μM
[7] = peptide inhibitor concentration 10 μM, listed as 2 (18), 10 µM
[8] = peptide inhibitor concentration 100 μM, listed as 2 (18), 100 µM
[9] = peptide inhibitor concentration 1000 μM, listed as 2 (18), 1000 µM
[10] = peptide inhibitor concentration 10 μM, listed as 11 (19), 10 µM
[11] = peptide inhibitor concentration 100 μM, listed as 11 (19), 100 µM
[12] = peptide inhibitor concentration 1000 μM, listed as 11 (19), 1000 µM

% INHIBITION OF BINDING OF D93 TO HUMAN DENATURED-COLLAGEN IV [1, 3] [%]	% INHIBITION OF BINDING OF D93 TO HUMAN DENATURED-COLLAGEN IV [1, 4] [%]	% INHIBITION OF BINDING OF D93 TO HUMAN DENATURED-COLLAGEN IV [1, 5] [%]	% INHIBITION OF BINDING OF D93 TO HUMAN DENATURED-COLLAGEN IV [1, 6] [%]	% INHIBITION OF BINDING OF HUI77 TO DENATURED COLLAGEN IV [2, 4] [%]	% INHIBITION OF BINDING OF HUI77 TO DENATURED COLLAGEN IV [2, 5] [%]	% INHIBITION OF BINDING OF HUI77 TO DENATURED COLLAGEN IV [2, 6] [%]	Substance	further results
12	41.5	89	92.5	10	14	73	LPGPPGPPGP (LPGP[Hyp]GP[Hyp]GP) [SEQ ID NO: 20]	–
–	–	–	–	–	–	–	LPGPPGPPGPY [SEQ ID NO: 18]	% INHIBITION OF BINDING OF D93 TO HUMAN DENATURED-COLLAGEN IV ([1]; peptide inhibitor concentration 1 μM, listed as 2 (18), 1 µM): 6%; % INHIBITION OF BINDING OF D93 TO HUMAN DENATURED-COLLAGEN IV [1, 7]: 2%; % INHIBITION OF BINDING OF D93 TO HUMAN DENATURED-COLLAGEN IV [1, 8]: 7%; % INHIBITION OF BINDING OF D93 TO HUMAN DENATURED-COLLAGEN IV [1, 9]: 46%; % INHIBITION OF BINDING OF HUI77 TO DENATURED COLLAGEN IV [2, 7]: 5.5%; % INHIBITION OF BINDING OF HUI77 TO DENATURED COLLAGEN IV [2, 8]: 6.5%; % INHIBITION OF BINDING OF HUI77 TO DENATURED COLLAGEN IV [2, 9]: 4.5%
–	–	–	–	–	–	–	LPGPPGPPGPY [SEQ ID NO: 19]	% INHIBITION OF BINDING OF D93 TO HUMAN DENATURED-COLLAGEN IV ([1]; peptide inhibitor concentration 1 μM, listed as 11 (19), 1 µM): 32%; % INHIBITION OF BINDING OF D93 TO HUMAN DENATURED-COLLAGEN IV [1, 10]: 83%; % INHIBITION OF BINDING OF D93 TO HUMAN DENATURED-COLLAGEN IV [1, 11]: 93.5%; % INHIBITION OF BINDING OF D93 TO HUMAN DENATURED-COLLAGEN IV [1, 12]: 93.5%; % INHIBITION OF BINDING OF HUI77 TO DENATURED COLLAGEN IV [2, 10]: 6.5%; % INHIBITION OF BINDING OF HUI77 TO DENATURED COLLAGEN IV [2, 11]: 18.5%; % INHIBITION OF BINDING OF HUI77 TO DENATURED COLLAGEN IV [2, 12]: 87%
9.5	3.5	2.5	13.5	8	10.5	8.5	LPGSPG (L[Hyp]GS[Hyp]G) [SEQ ID NO: 26]	–
7	2	4.5	24	3.5	4.5	6	LPGTPG (L[Hyp]GT[Hyp]G) [SEQ ID NO: 27]	–
11	6	4	11.5	8	10.5	10	PGAKGLPGP ([Hyp]GAKGLPGP) [SEQ ID NO: 17]	–

— patent US20080008707A1, “Denatured collagen peptides and uses thereof” (Cell-Matrix, Inc., priority 2006, published 2008)
